The source of these data is ChEMBL document CHEMBL1201862, “PubChem BioAssay data set” (2004).

Each structure is given as a SMILES string.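 Test compounds were applied to cells in 96-well plates for 48 hours at 5 doses. Abbreviation: GI50, concentration required for 50% inhibition of growth.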 Calls of active or inactive are those of the source. No stated cut-off is given here; in the data, active = GI50 up to about 1.1 µM and inactive = higher. Where only a bound is given, the exact number is not on record here.

Some test systems named below: CCRF-CEM; UACC-62; SK-MEL-5; NCI-H226; U-251; MOLT-4; SNB-19; COLO 205; SNB-75; MCF7; SK-OV-3; MDA-MB-435; 786-0; SF-268; Malme-3M; SF-295; SN12C; OVCAR-4; HCC 2998.
What all share (experiment): DTP human tumour cell line panel, 48 h

The GI50 is the concentration that inhibits growth by half. Regarding `O=C(CN1CCOCC1)c1ccc2c(c1)oc(=O)n2CCN1CCCCC1`, the GI50 in the test on CCRF-CEM, in the test with UACC-62, in the test on SK-MEL-5, in the test with NCI-H226, in the test with U-251 and in the test with MOLT-4 was > 100 µM (inactive) throughout. In addition, the GI50 in the test with SNB-19 was > 100 µM (inactive); with COLO 205, > 100 µM (inactive); in the test with SNB-75, 0.179 µM (active); with MCF7, > 100 µM (inactive); with SK-OV-3, > 100 µM (inactive); with MDA-MB-435, > 100 µM (inactive). Besides, the GI50 in the test on 786-0 was > 100 µM (inactive); in the test with SF-268, 48.3 µM (inactive); in the test with Malme-3M, > 100 µM (inactive); with SF-295, > 100 µM (inactive); in the test on SN12C, > 100 µM (inactive).

For the compound `O=C(NC12CC3CC(CC(C3)C1)C2)C(=O)c1c[nH]c2ccccc12`, the GI50 was 16.4 µM (inactive) with CCRF-CEM; 13.4 µM (inactive) in the test with UACC-62; 15.4 µM (inactive) in the test with SK-MEL-5; > 10 µM (inactive) in the test with NCI-H226; 13.5 µM (inactive) in the test on U-251; 12.2 µM (inactive) with MOLT-4. The GI50 in the test on SNB-19 is 17.9 µM (inactive); in the test on COLO 205, 18.7 µM (inactive); with OVCAR-4, 16.3 µM (inactive); in the test with SNB-75, > 10 µM (inactive); in the test on SK-OV-3 it was 16 µM (inactive); in the test on 786-0 it was 13.1 µM (inactive). The GI50 in the test on SF-268 was 16.6 µM (inactive); in the test with Malme-3M, 15 µM (inactive); with SF-295, 10.2 µM (inactive); with HCC 2998 it was 14.8 µM (inactive); in the test with SN12C, 16.5 µM (inactive).

Turning to `COc1ccc2c(N=[N+]=[N-])c(-c3ccccc3)c(=O)oc2c1`, the GI50 in the test on CCRF-CEM is 36.1 µM (inactive); in the test on UACC-62, 58.6 µM (inactive); in the test with SK-MEL-5, 25.5 µM (inactive); in the test on MOLT-4, 21.5 µM (inactive); in the test with COLO 205, 56.8 µM (inactive); in the test on SNB-75 it was > 100 µM (inactive). Further, the GI50 in the test on MCF7 is 36.2 µM (inactive); in the test with SK-OV-3, 76.6 µM (inactive); in the test on MDA-MB-435, 45.8 µM (inactive); with 786-0, > 100 µM (inactive); in the test with SF-268, 78.5 µM (inactive); in the test on Malme-3M, 33.3 µM (inactive). Further, the values for the GI50 with SF-295, in the test with HCC 2998 and in the test on SN12C were 61.9 µM (inactive), 92.3 µM (inactive) and 61.1 µM (inactive), respectively.

In the case of `O=C(c1cccs1)N(C(=S)OCc1ccccn1)c1ccccc1`, the GI50 was 40.6 µM (inactive) in the test on CCRF-CEM; > 100 µM (inactive) in the test with UACC-62; 51.2 µM (inactive) in the test on SK-MEL-5; 32.9 µM (inactive) in the test with NCI-H226; 92.5 µM (inactive) in the test with U-251; 45.7 µM (inactive) in the test with MOLT-4. Also, the GI50 was > 100 µM (inactive) with SNB-19; 88.1 µM (inactive) in the test on COLO 205; 68.4 µM (inactive) with MCF7; > 100 µM (inactive) in the test on SK-OV-3; > 100 µM (inactive) in the test on MDA-MB-435; > 100 µM (inactive) with 786-0. Also, the GI50 in the test on SF-268 is > 100 µM (inactive); in the test with Malme-3M, 18.6 µM (inactive); in the test with SF-295, 40.4 µM (inactive); in the test on SN12C, 50.7 µM (inactive).

Consider `CN(C(=O)C12C3C4(C(=O)O)C1(C(=O)N(C)C(C)(C)C)C1C2(C(=O)O)C3(C(=O)N(C)C(C)(C)C)C14C(=O)N(C)C(C)(C)C)C(C)(C)C` (centres undefined), for which the GI50 in the test with CCRF-CEM, in the test with UACC-62, with SK-MEL-5, in the test with U-251, in the test on MOLT-4 and in the test with SNB-19 was > 100 µM (inactive) each time. The GI50 in the test with COLO 205, with OVCAR-4, in the test with MCF7, in the test with MDA-MB-435, in the test on 786-0 and with SF-268 was > 100 µM (inactive) each time. Moreover, the GI50 in the test on SF-295, in the test with HCC 2998 and with SN12C was > 100 µM (inactive) throughout.

Regarding `CCOC(=O)C(=O)CC(=O)C1=C(c2ccccc2OC)CC(c2cccs2)=CC1=O`, the GI50 is 37.1 µM (inactive) in the test with CCRF-CEM; > 100 µM (inactive) in the test with UACC-62; 44.1 µM (inactive) with SK-MEL-5; > 100 µM (inactive) in the test on NCI-H226; 86.3 µM (inactive) with U-251; 37.1 µM (inactive) in the test with MOLT-4. Besides, the GI50 with SNB-19 is > 100 µM (inactive); in the test with COLO 205 it was 39.7 µM (inactive); in the test on SNB-75, 0.418 µM (active); in the test with SK-OV-3, 29.7 µM (inactive); in the test with MDA-MB-435 it was 35.9 µM (inactive); with 786-0, > 100 µM (inactive). In addition, the GI50 was > 100 µM (inactive) in the test on SF-268, > 100 µM (inactive) in the test on Malme-3M, 18.7 µM (inactive) with SF-295 and > 100 µM (inactive) with SN12C.

Turning to `COc1ccc(NC(=O)c2cc(NC(=O)/C=C/c3ccccc3)c(OC)c(OC)c2)cc1`, the GI50 with CCRF-CEM was 7 µM (inactive); in the test on UACC-62, 3.9 µM (inactive); in the test with SK-MEL-5, 5.82 µM (inactive); with NCI-H226, 6.64 µM (inactive); in the test with U-251, 8.91 µM (inactive); in the test on MOLT-4, 6 µM (inactive). In addition, the GI50 in the test with SNB-19 was 61.1 µM (inactive); with COLO 205 it was 22.5 µM (inactive); in the test on OVCAR-4 it was 53 µM (inactive); with SNB-75, 2.26 µM (inactive); with MCF7, 3.69 µM (inactive); with SK-OV-3 it was 51.5 µM (inactive). Besides, the GI50 in the test on MDA-MB-435 is 3.07 µM (inactive); with 786-0, 11.7 µM (inactive); in the test with SF-268 it was 56.8 µM (inactive); in the test with Malme-3M it was 18.2 µM (inactive); in the test on SF-295, 17.4 µM (inactive); in the test on SN12C it was 6.3 µM (inactive).

On to `CNC(=O)c1ccccc1[S+]1c2cccc3cccc(c23)C(=O)N1C` (centres undefined), for which the GI50 in the test with CCRF-CEM, in the test on UACC-62, in the test on SK-MEL-5, in the test with NCI-H226, with U-251 and in the test with MOLT-4 was > 100 µM (inactive) each time. For the same compound, the GI50 in the test on SNB-19, with COLO 205, in the test on OVCAR-4, with MCF7, in the test with MDA-MB-435 and with 786-0 was > 100 µM (inactive) in each case. Also, the GI50 with SF-268, in the test with Malme-3M, in the test with SF-295 and in the test with SN12C was > 100 µM (inactive) throughout.

`CCOC(=O)N/N=C(\CC)OCC`: the GI50 in the test with CCRF-CEM, in the test with UACC-62, with SK-MEL-5, with MOLT-4, in the test on SNB-19 and in the test with COLO 205 was > 100 µM (inactive) each time. The GI50 in the test with SNB-75, in the test on MCF7, in the test with SK-OV-3, in the test with 786-0, in the test on SF-268 and with Malme-3M was > 100 µM (inactive) in each case. Also, the GI50 in the test with SF-295, in the test with HCC 2998 and in the test with SN12C was > 100 µM (inactive) each time.

As for `N#CC(C(=O)c1cccnc1Cl)c1nc2cc(C(F)(F)F)ccc2s1` (centres undefined), the GI50 with SK-MEL-5 was > 100 µM (inactive); in the test on NCI-H226, 44.2 µM (inactive); with U-251, 78.3 µM (inactive); with MOLT-4 it was > 100 µM (inactive); in the test on SNB-19 it was 77.3 µM (inactive); in the test with COLO 205, 44.2 µM (inactive). The GI50 was 67 µM (inactive) with OVCAR-4; 25.3 µM (inactive) in the test with SNB-75; 62.7 µM (inactive) in the test on SK-OV-3; 47.2 µM (inactive) in the test with MDA-MB-435; 88.9 µM (inactive) with 786-0; 64.9 µM (inactive) in the test on SF-268. For the same compound, the GI50 was 37.1 µM (inactive) with Malme-3M, 27.7 µM (inactive) with SF-295 and 27.7 µM (inactive) in the test with SN12C.

Turning to `S=C1CC(c2ccccc2)Sc2ccc(Cl)cc2N1` (centres undefined), the GI50 in the test on CCRF-CEM is > 100 µM (inactive); in the test on UACC-62, 48.1 µM (inactive); in the test on SK-MEL-5 it was 22 µM (inactive); in the test with NCI-H226, > 100 µM (inactive); in the test on U-251, 16.5 µM (inactive); in the test on MOLT-4, 18.7 µM (inactive). The GI50 with SNB-19 is 34 µM (inactive); in the test with COLO 205, 63.7 µM (inactive); in the test with OVCAR-4, 54.5 µM (inactive); with SNB-75, 30 µM (inactive); in the test on MCF7, 36.2 µM (inactive); in the test on SK-OV-3 it was 56.6 µM (inactive). The GI50 with MDA-MB-435 is 13.4 µM (inactive); with 786-0, 24.3 µM (inactive); with SF-268, 37.9 µM (inactive); in the test on Malme-3M, > 100 µM (inactive); in the test on SF-295, 26.9 µM (inactive); in the test on SN12C, 94 µM (inactive).

As to `COc1cc(O)c2c(O)c3c(=O)oc(C)cc3c(OC)c2c1` [PAEPALANTINE], the GI50 with CCRF-CEM is 21.4 µM (inactive); in the test with UACC-62 it was 21.9 µM (inactive); in the test on SK-MEL-5 it was 25.2 µM (inactive); with U-251, 32.5 µM (inactive); with MOLT-4, 23 µM (inactive); in the test with SNB-19, 39.3 µM (inactive). The GI50 in the test on COLO 205 is 19.2 µM (inactive); in the test with OVCAR-4, 14.7 µM (inactive); in the test with MCF7 it was 32.6 µM (inactive); in the test on SK-OV-3, 24.5 µM (inactive); in the test with MDA-MB-435, 18.3 µM (inactive); in the test on 786-0 it was 31.1 µM (inactive). Further, the GI50 in the test on SF-268 is 34.3 µM (inactive); with Malme-3M, 21.4 µM (inactive); with SF-295 it was 27 µM (inactive); in the test on SN12C, 24.1 µM (inactive).
